Data on four compounds can be found in patent US8343981B2, “Heterocyclyl-substituted dihydroquinazolines and their use as antiviral agents” (AiCuris GmbH & Co. KG, priority 2003, dated 2013).

Series [1] is described as follows: Cytostatic effect on NHDF cells in the anti-HCMV cytopathogenicity test. Type of series: cell-based. As to conditions: NHDF cells (human prepuce fibroblasts), 6 days incubation, visual assessment, concentration at which no visible cytostatic effects are evident. The protocol:
(§1) Anti-HCMV (Anti-Human Cytomegalovirus) Cytopathogenicity Tests The test compounds are employed as 50 millimolar (mM) solutions in dimethyl sulphoxide (DMSO). Ganciclovir®, Foscarnet® and Cidofovir® are used as reference compounds. After addition of in each case 2 μl of the 50, 5, 0.5 and 0.05 mM DMSO stock solutions to 98 μl portions of cell culture medium in row […] for duplicate determinations, 1:2 dilutions are carried out with 50 μl portions of medium up to row 11 of the 96-well plate. The wells in rows 1 and 12 each contain 50 μl of medium. Then 150 μl portions of a suspension of 1×10^4 cells (human prepuce fibroblasts [NHDF]) are pipetted into each of the wells (row 1=cell control) and, in rows 2-12, a mixture of HCMV-infected and uninfected NHDF cells (M.O.I.=0.001-0.002), i.e. 1-2 infected cells per 1000 uninfected cells. Row 12 (without substance) serves as virus control. The final test concentrations are 250-0.0005 μM. The plates are incubated at 37° C./5% CO2 for 6 days, i.e. until all the cells are infected in the virus controls (100% cytopathogenic effect [CPE]). The wells are then fixed and stained by adding a mixture of formalin and Giemsa's dye (30 minutes), washed with double-distilled water and dried in a drying oven at 50° C. The plates are then assessed visually using an overhead microscope (Plaque Multiplier from Technomara). The following data can be acquired from the test plates: • CC50 (NHDF)=substance concentration in μM at which no visible cytostatic effects on the cells are evident by comparison with the untreated cell control; • EC50 (HCMV)=substance concentration in μM which inhibits the CPE (cytopathic effect) by 50% compared with the untreated virus control; • SI (selectivity index)=CC50 (NHDF)/EC50 (HCMV).
(In general: Protection from cytopathic effect is a common read-out in antiviral testing.)

In a further series the test system is HCMV. The series is described as follows: Anti-HCMV cytopathogenicity test. Type of series: cell-based, human cytomegalovirus. As to conditions: for SI HCMV (selectivity index): CC50 (NHDF)/EC50 (HCMV); for pEC50: Human betaherpesvirus 5, 144 h, HCMV-infected NHDF cells, M.O.I. 0.001-0.002, 6 days, 50% inhibition of cytopathic effect. On the procedure: as §1

pEC50: −log10 of the molar value.

The CC50 is the concentration at which the toxic effect on the cells reaches its halfway point. High values mean lower toxicity to the cells, low ones greater toxicity to the cells. One may read the pEC50 as the negative decadic logarithm of the EC50, by convention in mol/L. Read a low pEC50 as a large EC50.

In series [1], `COc1ccc(C(F)(F)F)cc1N1C(N2CCn3c(cc4c(C)cccc43)C2)=Nc2c(F)cccc2C1CC(=O)O` (single isomer, unassigned) [Example 2] had a CC50 at 6 days of 21 µM. Moreover, in the series on HCMV, the “SI HCMV (selectivity index)” value amounted to 233 and the negative logarithm of the EC50 (pEC50) was 7.05.

Turning to `COc1ccc(C(F)(F)F)cc1N1C(N2CCn3c(cc4c(F)cccc43)C2)=Nc2c(F)cccc2C1CC(=O)O` (single isomer, unassigned) [Example 4], in series [1], the midpoint of cytotoxicity, the CC50 at 6 days, lay at 14 µM. Also, in the series with HCMV, the “SI HCMV (selectivity index)” value amounted to 117 and the pEC50 was 6.92.

As to `COc1ccc(C(F)(F)F)cc1N1C(N2CCN3c4ccc(F)cc4CC3C2)=Nc2c(F)cccc2C1CC(=O)O` (single isomer, unassigned) [Example 16, {8-Fluoro-2-(8-fluoro-3,4,10,10a-tetrahydropyrazino[1,2-a]indol-2(1H)-yl)-3-[2-methoxy-5-(trifluoromethyl)phenyl]-3,4-dihydroquinazolin-4-yl}acetic acid], in series [1], the midpoint of cytotoxicity, the CC50 at 6 days, lay at 21 µM. For the same compound, in the series on HCMV, the “SI HCMV (selectivity index)” value stood at 1050 and the pEC50 is 7.70.

With `COc1ccc(C(F)(F)F)cc1N1C(N2CCN3c4cccc(C)c4CC3C2)=Nc2c(F)cccc2C1CC(=O)O` (stereo not drawn) [Example 9, [8-Fluoro-3-[2-methoxy-5-(trifluoromethyl)phenyl]-2-(9-methyl-3,4,10,10a-tetra-hydropyrazino[1,2-a]indol-2(1H)-yl)-3,4-dihydroquinazolin-4-yl]acetic acid], the CC50 at 6 days in series [1] was 24 µM. In the series on HCMV, the “SI HCMV (selectivity index)” value amounted to 600 and the pEC50 is 7.40.
